Measured values published in patent publication US9084818B2, “Topical dermal delivery compositions using self assembling nanoparticles with cetylated components” (CYMBIOTICS, INC., priority 2013, dated 2015).

Columns and labels:
[1] = Minimum HLB needed for cetosome formation; format: physicochemical; conditions: surfactant HLB requirement to solubilize and stabilize within the cetosome
Protocol: Core components are also chosen with melting points between 40° to 75° C. This allows for thermal dissociation into the oil phase and strong affinity re-association as the temperature is reduced.

[2] = Pre-clinical pharmacokinetic feasibility study of oxybutynin cream on shaved rabbit backs; format: in vivo, rabbits
Protocol: Two levels of oxybutynin hydrochloride for use in the study were incorporated into the composition matrix: 5 mg/gm and 0.5 mg/ml. Three rabbits were chosen for each dosing. Animal backs were shaved were shaved 24 hrs prior to application. One gram was applied to the shaved area and rubbed in. This was covered by non-absorbent dressing. One milliliter of blood was collected from a marginal ear vein at baseline, 15 minutes, 1 hr, 6 hrs, 12 hrs and 24 hrs following dosing. Heparin was used as anticoagulant. Extracted samples were analyzed using an LC/MS-MS spectrometer (API 3000) with diazepam as an internal standard. Mobile phase was a 50:40:10 mixture (methanol:acetonitrile: 10 mM ammonium formate). The column used was a Phenomenex, Luna C18, 150×4.6 mm, 5 micron. Temperature for analysis was 30° C. with a flow rate of 1.0 ml/min with splitter with detection using ESI positive ion. Both oxybutynin and N-desethyl-oxybutynin were analyzed. N-desethyl-oxybutynin (DES) is a metabolite of oxybutynin considered to be associated with adverse secondary side effects.

[3] = rabbit, in vivo, topical or ocular, 5 mg
[4] = Cream, 0.5 mg/ml, one gram topical, rabbit plasma, mean

MINIMUM HLB NEEDED FOR CETOSOME FORMATION [1]	melting point [°C]	Compound	also measured
15.5		CCCCCCCCCCCCCCCCO [Cetyl Alcohol]	
10	40 to 44	CCCCCCCCCCCCCCCCOC(=O)CCCCCCCCC [Cetyl Decanoate]	
10	43 to 45	CCCCCCCCCCCCCCCCOC(=O)CCCCCCCCCCC [Cetyl Laurate]	
10	45 to 48	CCCCCCCCCCCCCCCCOC(=O)CCCCCCCCCCCCC [Cetyl Myristate]	
10	52 to 60	CCCCCCCCCCCCCCCCOC(=O)CCCCCCC [Cetyl Octanoate]	
10	58 to 60	CCCCCCCC/C=C\CCCCCCCC(=O)OCCCCCCCCCCCCCCCC [Cetyl Oleate]	
10		CCCCCCCCCCCCCCCCOC(=O)CCCCCCCCCCCCCCC [Cetyl Palmitate]	
10	45 to 52	CCCCCC/C=C\CCCCCCCC(=O)OCCCCCCCCCCCCCCCC [Cetyl Palmitoleate]	
10	62 to 70	CCCCCCCCCCCCCCCCCC(=O)OCCCCCCCCCCCCCCCC [Cetyl Stearate]	
		CCNCC#CCOC(=O)C(O)(c1ccccc1)C1CCCCC1 (stereo not shown) [DES, N-desethyl-oxybutynin]	detection of the metabolite in plasma during the 24 hour period ([2]; either level of dose application): not detectable; Tmax ([2]; rabbit, in vivo, topical or ocular): <0.5 h
		CCN(CC)CC#CCOC(=O)C(O)(c1ccccc1)C1CCCCC1 (stereo not shown) [Oxybutynin, oxybutynin]	AUC(0-t) [2, 3]: 22 ng·h/mL; Cmax [2, 3]: 9.33 ng/mL; Tmax [2, 3]: 6 h
10		Cetyl Isomyristate	
		oxybutynin	AUC 0-24 hr [2, 4]: 2.512 ng·h/mL; Cmax [2, 4]: 0.836 ng/mL; Tmax [2, 4]: 12 h
